Consider 1 sequence from patent publication US9303069B2, “Peptides for treating cancer” (University of Mississippi Medical Center, priority 2014, dated 2016).

pIC50: −log10 of the molar value. Ends that are not written are not given here.

Assay [1] has as its system HME, HME/IRIS, MDA-MB-231, MDA-MB-468 and BT549 cells. Put plainly: Survival of breast cell lines with IRIS peptide, paclitaxel or both. It counts as cell-based, human. Conditions: all cell lines; IRIS peptide alone, 0.5 μM (HME) or 5 μM (others), 24 hours. The protocol:
(§1) To investigate whether inactivating BRCA1-IRIS could sensitize TNBC to paclitaxel-induced cell death, HME cells were exposed to 0.5 μM, while HME/IRIS, MDA-MB-231, MDA-MB-468 and BT549 cells were exposed to 5 μM of IRIS peptide alone or with 5, 10 or 20 μM of paclitaxel for 24 hours. […] Again, IRIS peptide alone at these concentrations led to 50% reduction in survival of all cell lines. […] Indeed, in the presence of IRIS peptide >60%, >70% and >90% reduction in the survival of all cell lines in the presence of 5, 10 and 20 μM of paclitaxel, respectively (FIG. 84).
Cell viability measurement. Cell viability under different experimental conditions was determined using the MTS assay. Briefly, cells (2.5×10^4 cells per well) were seeded in 96-well plates and incubated overnight at 37° C. in 10% humidified CO2 atmosphere. The next day they were incubated with varying concentration of peptide, or inhibitors for 24 hours at 37° C. Cell viability was determined using cell Titer 96® Aqueous (Promega, Madison, Wis., USA) following manufacturer's instructions. Cell viability (%) was expressed as a ratio of treated cells to control cells×100. Growth inhibition was also determined by manually counting cells in five different microscopic fields. Change in cell numbers (fold) was expressed as a ratio of the means of these recording of treated cells compared to control cells×100. Each experiment was done in triplicate, repeated three separate times.

A further assay relates to BRCA1-IRIS. Put plainly: BRCA1-IRIS expression in breast cells (Western). It counts as cell-based, human. On the procedure:
HME and HME/IRIS cells were treated with 10, 20 and 50 μM of paclitaxel for 24 hours. Compared to HME/IRIS cells, untreated HME cells express very low level of BRCA1-IRIS (FIG. 68, left). […] Both EGF and NRG1, which were secreted at higher levels from untreated HME/IRIS cells, remained high after paclitaxel (until ˜50 μM, FIG. 68, left), whereas in HME cells, both were induced by low paclitaxel treatment (FIG. 68, left). Consistently, in HME/IRIS cells EGFR was phosphorylated on Y1173 (activated by EGF when EGFR is in complex with ErbB2) and ErbB2 on Y1248 (activated by NRG1 when ErbB2 is in complex with ErbB3) remained the same after paclitaxel treatment (until ˜50 μM, FIG. 68, left). Phosphorylated EGFR-Y1173 and ErbB2-Y1248 was only observed in paclitaxel treated HME cells, especially at low concentration (FIG. 68, left).
Survived/paclitaxel-resistant cells were then propagated in the absence of paclitaxel and analyzed. Again, the intrinsically high level of BRCA1-IRIS was not affected by paclitaxel in HME/IRIS cells (FIG. 69, left). […] The expressions of EGFR, ErbB2 and ErbB3 were high in HME/IRIS and HME cells (FIG. 69, left). Despite an intrinsic increase in HME/IRIS and paclitaxel-acquired increase in HME cells in AKT activation, FOXO inactivation/degradation and thus activation increase in CyclinD1, survivin, Bcl-2, Bcl-xL and NF-κB was observed (FIG. 69, right).
To test that hypothesis, an intron 11 peptide (right in FIG. 26) fused to a cell/nucleus penetrating signal at its N-terminus (left in FIG. 26) was synthesized (hereafter IRIS peptide). First, to assess the effect of this IRIS peptide, equal numbers of HME, HME/IRIS, MDA-MB-231, MDA-MB-468 and BT549 cells were exposed to increasing concentrations of scrambled or IRIS peptide for 48 hours. […] It is possible that preventing BRCA1-IRIS-X complex formation destabilizes BRCA1-IRIS and perhaps leads to its degradation.
as §1
To relate the effect of IRIS peptide on cell survival to the effect of BRCA1-IRIS on AKT and ERK survival pathways, MDA-MB-231 and MDA-MB-468 were treated with vehicle, 5 μM of IRIS peptide, 10 μM LY294002, 10 μM PD98059 for 24 hours or were transfected with BRCA1-IRIS siRNA for 72 hours.

A further assay deals with MDA-MB-468 cells. Conditions: 48 h.

Procedure for MDA-MB-468 cells: All cell lines were exposed to increasing concentrations of paclitaxel and BRCA1-IRIS expression, and cells' viability was then measured.
Stable clones were then exposed to 0, 10 or 20 μM of EGFR (Erlotinib), ErbB2 (CP-724714), PI3′K/AKT (LY294002), p38 (SB203580), ERK (PD98059) or JNK (SP600125) inhibitors for 24 hours.

“RRIRPRPPRLPRPRPRPLPFPRPGIGTRFLCLPQSIYRSELNVYAFGEHILQISKYS [IRIS peptide]” returned a reduction in survival in assay [1] of 50%. The BRCA1-IRIS expression result in the assay on BRCA1-IRIS (HME, HME/IRIS and TNBC cell lines, 5 μM of IRIS peptide for 24 hours) was “significant reduction in BRCA1-IRIS expression”; in the assay with BRCA1-IRIS (MDA-MB-231 and MDA-MB-468, 5 μM IRIS peptide, 10 μM LY294002 or 10 μM PD98059 24 hours, siRNA 72 hours), “significantly decreased in both cell lines”; in the assay with BRCA1-IRIS (all cell lines, IRIS peptide 0.5 μM (HME) or 5 μM (others), 24 hours), “completely abolished BRCA1-IRIS expression in all cell lines”. Moreover, the pIC50 (usually the negative decadic logarithm of the IC50, by convention in mol/L) in the assay on MDA-MB-468 cells is roughly 5.30.
